The source made the active and inactive calls. The rule behind the calls is not given here.
How the values were obtained:
[1] = test system: Human immunodeficiency virus 1; assay: Antiviral activity against HIV1 NL4-3 harboring reverse transcriptase M184V mutant infected in human HeLaP4 cells assessed as inhibition of viral replication after 5 days by beta-galactosidase reporter assay; type: functional, organism-based
[2] = target: Type-1 angiotensin II receptor (Homo sapiens) (UniProt P30556); assay: Inhibition of human AT1 receptor at up to 10 uM
Chain of Type-1 angiotensin II receptor (Homo sapiens) (P30556 whole entry): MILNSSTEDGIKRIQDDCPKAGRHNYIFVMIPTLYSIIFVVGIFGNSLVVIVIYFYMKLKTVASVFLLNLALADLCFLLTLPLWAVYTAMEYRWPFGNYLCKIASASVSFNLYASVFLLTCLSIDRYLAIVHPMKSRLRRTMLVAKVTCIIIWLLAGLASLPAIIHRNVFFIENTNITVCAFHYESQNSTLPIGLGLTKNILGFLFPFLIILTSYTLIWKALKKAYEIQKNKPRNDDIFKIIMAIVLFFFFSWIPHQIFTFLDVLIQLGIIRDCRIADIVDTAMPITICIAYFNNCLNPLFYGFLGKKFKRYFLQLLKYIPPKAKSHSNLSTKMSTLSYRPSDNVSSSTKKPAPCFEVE

[3] = test system: Human immunodeficiency virus 1; assay: Antiviral activity against HIV1 NL4-3 harboring reverse transcriptase V108I mutant infected in human HeLaP4 cells assessed as inhibition of viral replication after 5 days by beta-galactosidase reporter assay; type: functional, organism-based
[4] = test system: Human immunodeficiency virus 1; assay: Antiviral activity against HIV1 NL4-3 harboring reverse transcriptase L100I, K103Q, H221H/Y mutant infected in human SupT1 cells derived from 11 viral passages with efavirenz assessed as inhibition of viral replication after 21 days relative to drug sensitive HIV1 NL4-3; type: functional, SUP-T1
[5] = target: Human immunodeficiency virus type 1 reverse transcriptase (Human immunodeficiency virus 1, UniProt Q72547, K103N); assay: Inhibition of HIV1 HXB2 reverse transcriptase K103N mutant activity by primer extension assay
[6] = target: Human immunodeficiency virus type 1 reverse transcriptase (Human immunodeficiency virus 1) (UniProt Q72547); assay: Noncovalent binding affinity to wild type recombinant HIV1 HXB2 reverse transcriptase by protein X-ray crystallography analysis
[7] = test system: Human immunodeficiency virus 1; assay: Ratio of EC50 for wild type HIV1 NL4-3 to EC50 for HIV1 NL4-3 harboring reverse transcriptase K101E mutant; type: functional
[8] = target: Amine oxidase [flavin-containing] A (Homo sapiens, UniProt P21397); assay: Inhibition of human MAO-A at up to 10 uM
Chain of Amine oxidase [flavin-containing] A (P21397 whole entry): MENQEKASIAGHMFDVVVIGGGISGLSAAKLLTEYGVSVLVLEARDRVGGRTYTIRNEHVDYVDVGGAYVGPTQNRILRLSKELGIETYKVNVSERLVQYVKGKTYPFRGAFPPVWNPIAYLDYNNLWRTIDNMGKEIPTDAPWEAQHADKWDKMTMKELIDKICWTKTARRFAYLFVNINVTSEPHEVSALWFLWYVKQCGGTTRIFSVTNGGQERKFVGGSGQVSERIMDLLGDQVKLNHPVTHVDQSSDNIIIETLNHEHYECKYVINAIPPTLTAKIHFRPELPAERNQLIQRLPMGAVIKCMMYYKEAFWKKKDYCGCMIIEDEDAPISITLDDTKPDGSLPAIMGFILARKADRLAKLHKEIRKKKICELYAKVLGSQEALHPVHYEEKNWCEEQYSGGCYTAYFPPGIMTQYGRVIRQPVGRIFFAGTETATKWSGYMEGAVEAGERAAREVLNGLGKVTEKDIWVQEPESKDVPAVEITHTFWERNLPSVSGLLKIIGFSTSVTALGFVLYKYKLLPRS

[9] = test system: Human immunodeficiency virus 1; assay: Ratio of EC50 for wild type HIV1 NL4-3 to EC50 for HIV1 NL4-3 harboring reverse transcriptase F227L mutant; type: functional
[10] = test system: Human immunodeficiency virus 1; assay: Antiviral activity against HIV1 NL4-3 harboring reverse transcriptase K101E mutant infected in human HeLaP4 cells assessed as inhibition of viral replication after 5 days by beta-galactosidase reporter assay; type: functional, organism-based
[11] = target: Adenosine receptor A1 (Homo sapiens) (UniProt P30542); assay: Inhibition of human adenosine A1 receptor at up to 10 uM
Chain of Adenosine receptor A1 (Homo sapiens) (P30542 whole entry): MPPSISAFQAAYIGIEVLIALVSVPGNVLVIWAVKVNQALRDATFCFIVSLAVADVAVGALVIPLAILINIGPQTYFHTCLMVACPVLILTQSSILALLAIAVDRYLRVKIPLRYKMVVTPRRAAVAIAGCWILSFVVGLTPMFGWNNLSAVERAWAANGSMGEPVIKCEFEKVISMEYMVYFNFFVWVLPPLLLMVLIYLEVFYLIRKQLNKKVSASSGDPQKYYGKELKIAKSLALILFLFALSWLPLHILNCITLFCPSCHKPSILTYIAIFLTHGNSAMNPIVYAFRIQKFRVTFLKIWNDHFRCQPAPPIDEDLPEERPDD

[12] = Inhibition of human phosphodiesterase 4
[13] = test system: Human immunodeficiency virus 1; assay: Antiviral activity against HIV1 NL4-3 infected in human SupT1 cells derived from 11 viral passages assessed as inhibition of viral replication after 21 days relative to drug sensitive HIV1 NL4-3; type: functional, SUP-T1
[14] = test system: Human immunodeficiency virus 1; assay: Ratio of EC50 for wild type HIV1 NL4-3 to EC50 for HIV1 NL4-3 harboring reverse transcriptase K103N mutant; type: functional
[15] = test system: Human immunodeficiency virus 1; assay: Antiviral activity against HIV1 NL4-3 harboring reverse transcriptase F227L mutant infected in human HeLaP4 cells assessed as inhibition of viral replication after 5 days by beta-galactosidase reporter assay; type: functional, organism-based
[16] = species on record: Homo sapiens; assay: Inhibition of human neuronal nicotinic […] receptor at up to 10 uM
[17] = species on record: Homo sapiens; assay: Inhibition of human L-type calcium channel diltiazem binding site at up to 10 uM
[18] = test system: Human immunodeficiency virus 1; type: functional, organism-based; details: NL4-3, HeLaP4
[19] = test system: Human immunodeficiency virus 1; assay: Ratio of EC50 for wild type HIV1 NL4-3 to EC50 for HIV1 NL4-3 harboring reverse transcriptase P236L mutant; type: functional
[20] = test system: Human immunodeficiency virus type 1 reverse transcriptase (Human immunodeficiency virus 1), Q72547 [V106A]; assay: Inhibition of HIV1 histidine-tagged reverse transcriptase V106A mutant activity by primer extension assay
[21] = target: Glutamate [NMDA] receptor (Homo sapiens) (UniProt Q05586+Q12879+Q13224+O15399+O60391+Q14957+Q8TCU5); assay: Inhibition of human NMDA receptor at up to 10 uM
[22] = test system: Human immunodeficiency virus 1; assay: Ratio of EC50 for wild type HIV1 NL4-3 to EC50 for HIV1 NL4-3 harboring reverse transcriptase F227C mutant; type: functional
[23] = test system: Human immunodeficiency virus 1; assay: Antiviral activity against HIV1 NL4-3 harboring reverse transcriptase V106A mutant infected in human HeLaP4 cells assessed as inhibition of viral replication after 5 days by beta-galactosidase reporter assay; type: functional, organism-based
[24] = test system: Human immunodeficiency virus 1; assay: Antiviral activity against HIV1 NL4-3 harboring reverse transcriptase V108I, H221Y, F227F/L, M230M/I mutant infected in human SupT1 cells derived from 11 viral passages with lersivirine assessed as inhibition of viral replication after 21 days relative to drug sensitive HIV1 NL4-3; type: functional, SUP-T1
[25] = target: T1, Human immunodeficiency virus type 1 reverse transcriptase (Human immunodeficiency virus 1, UniProt Q72547); assay: Mixed non-competitive inhibition of HIV1 reverse transcriptase activity
[26] = test system: Human immunodeficiency virus 1; assay: Ratio of EC50 for wild type HIV1 NL4-3 to EC50 for HIV1 NL4-3 harboring reverse transcriptase L234I mutant; type: functional
[27] = test system: Human immunodeficiency virus type 1 reverse transcriptase (Human immunodeficiency virus 1), Q72547 [P236L]; assay: Inhibition of HIV1 histidine-tagged reverse transcriptase P236L mutant activity by primer extension assay
[28] = test system: Human immunodeficiency virus 1; assay: Ratio of EC50 for wild type HIV1 NL4-3 to EC50 for HIV1 NL4-3 harboring reverse transcriptase V106A, F227L mutant; type: functional
[29] = target: Muscarinic acetylcholine receptor (Homo sapiens) (UniProt P20309+P08173+P11229+P08172+P08912); assay: Inhibition of human non-selective muscarinic receptor at up to 10 uM; type: protein assay
[30] = test system: Human immunodeficiency virus type 1 reverse transcriptase (Human immunodeficiency virus 1), Q72547 [Y188C]; assay: Inhibition of HIV1 histidine-tagged reverse transcriptase Y188C mutant activity by primer extension assay
[31] = species on record: Homo sapiens; assay: Inhibition of human L-type calcium channel verapamil binding site at up to 10 uM
[32] = species on record: Homo sapiens; assay: Inhibition of human central benzodiazepine receptor at up to 10 uM
[33] = test system: Human immunodeficiency virus 1; assay: Ratio of EC50 for wild type HIV1 NL4-3 to EC50 for HIV1 NL4-3 harboring reverse transcriptase E138K mutant; type: functional
[34] = test system: Human immunodeficiency virus 1; assay: Ratio of EC50 for wild type HIV1 NL4-3 to EC50 for HIV1 NL4-3 harboring reverse transcriptase V108I mutant; type: functional
[35] = Cytotoxicity against human HeLaP4 cells at 200 uM by aqueous nonradioactive cell proliferation assay; type: cell-based; details: helap4, 200 µM
[36] = target: Beta-1 adrenergic receptor (Homo sapiens) (UniProt P08588); assay: Inhibition of human adrenergic beta1 receptor at up to 10 uM
Chain of Beta-1 adrenergic receptor (Homo sapiens) (P08588 whole entry, looked up): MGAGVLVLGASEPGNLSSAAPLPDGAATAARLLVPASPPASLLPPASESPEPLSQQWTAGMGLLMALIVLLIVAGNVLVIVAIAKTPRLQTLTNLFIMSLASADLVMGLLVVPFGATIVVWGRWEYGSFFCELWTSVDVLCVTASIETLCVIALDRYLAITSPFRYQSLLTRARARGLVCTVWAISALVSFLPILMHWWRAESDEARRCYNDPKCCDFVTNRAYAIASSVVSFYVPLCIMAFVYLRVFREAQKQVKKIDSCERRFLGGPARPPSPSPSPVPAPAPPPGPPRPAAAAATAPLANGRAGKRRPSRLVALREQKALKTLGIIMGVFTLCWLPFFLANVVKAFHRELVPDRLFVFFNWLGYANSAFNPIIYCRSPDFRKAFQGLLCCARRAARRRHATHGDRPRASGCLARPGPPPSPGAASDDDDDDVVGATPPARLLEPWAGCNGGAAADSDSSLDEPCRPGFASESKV

[37] = test system: Human immunodeficiency virus 1; assay: Ratio of EC50 for wild type HIV1 NL4-3 to EC50 for HIV1 NL4-3 harboring reverse transcriptase Y181I mutant; type: functional
[38] = target: T1, Human immunodeficiency virus type 1 reverse transcriptase; assay: Inhibition of HIV1 reverse transcriptase activity by primer extension assay
[39] = target: Opioid receptors; mu/kappa/delta (Homo sapiens) (UniProt P41145+P41143+P35372); assay: Inhibition of human non-selective opioid receptor at up to 10 uM
Chain of Opioid receptors; mu/kappa/delta (Homo sapiens) (P35372 whole entry, looked up): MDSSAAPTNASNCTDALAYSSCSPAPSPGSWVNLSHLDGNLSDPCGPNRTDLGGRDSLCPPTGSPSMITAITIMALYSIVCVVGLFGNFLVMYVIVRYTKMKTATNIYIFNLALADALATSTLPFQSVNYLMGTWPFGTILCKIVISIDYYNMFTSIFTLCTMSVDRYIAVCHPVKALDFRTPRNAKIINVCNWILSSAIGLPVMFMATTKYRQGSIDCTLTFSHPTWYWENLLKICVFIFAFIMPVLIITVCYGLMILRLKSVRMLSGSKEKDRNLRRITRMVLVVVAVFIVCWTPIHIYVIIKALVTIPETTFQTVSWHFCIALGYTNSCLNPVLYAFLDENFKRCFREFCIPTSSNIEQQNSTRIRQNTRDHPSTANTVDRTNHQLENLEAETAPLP
Chain of Opioid receptors; mu/kappa/delta (Homo sapiens) (P41143 whole entry, looked up): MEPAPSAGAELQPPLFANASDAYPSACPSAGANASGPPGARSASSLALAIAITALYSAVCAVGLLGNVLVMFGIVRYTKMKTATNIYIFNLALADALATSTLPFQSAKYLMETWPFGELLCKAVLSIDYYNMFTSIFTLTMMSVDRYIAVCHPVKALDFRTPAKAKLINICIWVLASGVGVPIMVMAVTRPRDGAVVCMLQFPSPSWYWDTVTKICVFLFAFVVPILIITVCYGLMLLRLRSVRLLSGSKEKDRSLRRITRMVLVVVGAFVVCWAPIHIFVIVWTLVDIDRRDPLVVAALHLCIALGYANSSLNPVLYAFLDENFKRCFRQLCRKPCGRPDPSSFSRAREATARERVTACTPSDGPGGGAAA
Chain of Opioid receptors; mu/kappa/delta (Homo sapiens) (P41145 whole entry, looked up): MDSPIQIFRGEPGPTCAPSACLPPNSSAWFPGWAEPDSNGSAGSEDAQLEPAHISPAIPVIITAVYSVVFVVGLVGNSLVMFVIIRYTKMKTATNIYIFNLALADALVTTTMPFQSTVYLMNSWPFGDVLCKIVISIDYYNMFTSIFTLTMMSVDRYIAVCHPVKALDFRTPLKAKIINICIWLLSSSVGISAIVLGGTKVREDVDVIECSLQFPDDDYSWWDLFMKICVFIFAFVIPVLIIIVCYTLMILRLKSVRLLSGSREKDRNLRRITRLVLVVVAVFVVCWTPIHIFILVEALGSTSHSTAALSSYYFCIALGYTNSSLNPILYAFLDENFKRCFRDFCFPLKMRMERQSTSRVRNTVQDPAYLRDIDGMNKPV

[40] = test system: Human immunodeficiency virus 1; assay: Antiviral activity against HIV1 NL4-3 infected in human MT2 cells assessed as inhibition of virus-induced cell death at 0.5 multiplicities of infection after 6 days; type: functional, organism-based; details: Human immunodeficiency virus 1, NL4-3, MT2, 144 h

With CCc1nn(CCO)c(CC)c1Oc1cc(C#N)cc(C#N)c1 [LERSIVIRINE] the inhibition [1] was “Active”, the inhibition [2] was “inactive” and the inhibition [3] was “Active”. For the same compound, the “fold change (FC)” value [4] was 5, the IC50 [5] was 215 nM and the Activity [6] was “Active”. The “Ratio EC50” value [7] was 10, the “inhibition (INH)” value [8] was “Not Active” and the “Ratio EC50” value [9] was 10. The inhibition [10] was “Active”, the inhibition [11] was “inactive” and the IC50 [12] was 3000 nM. For the same compound, the “fold change (FC)” value [13] was 0.6, the “Ratio EC50” value [14] was 10 and the inhibition [15] was “Active”. The inhibition [16] was “inactive”, the inhibition [17] was “inactive” and the inhibition [18] was “Active”. For the same compound, the “Ratio EC50” value [19] was 10, the inhibition [20] was “Active” and the inhibition [21] was “inactive”. For the same compound, the “Ratio EC50” value [22] was 55, the inhibition [23] was “Active” and the “fold change (FC)” value [24] was 60.5. The Ki [25] was 117 nM, the “Ratio EC50” value [26] was 20 and the inhibition [27] was “Active”. For the same compound, the “Ratio EC50” value [28] was over 200, the inhibition [29] was “inactive” and the inhibition [30] was “Active”. The inhibition [31] was “inactive”, the inhibition [32] was “inactive” and the “Ratio EC50” value [33] was 10. For the same compound, the “Ratio EC50” value [34] was 10, the Activity [35] was “Non-toxic” and the inhibition [36] was “inactive”. The “Ratio EC50” value [37] was 10, the IC50 [38] was 118 nM and the inhibition [39] was “inactive”. The EC50 [40] was 0.5 nM.
